Assay results: patent US11142588B2, “Polypeptides which bind C-X-C chemokine receptor type 4 (CXCR4) and methods of treating or reducing the risk of fibrosis and cancer” (AdAlta Limited, priority 2015, dated 2021)
Entries after “also recorded” stand apart in the source; their conditions may differ.

Columns and labels:
Ramos tumor cells [1] = experiment: MTT cell proliferation assay; type: cell-based, human; details: 24 to 72 hrs, AM3-114 at 10 μM
Description: The ability of the CXCR4 molecules or polypeptides disclosed herein (i-bodies) to inhibit proliferation of Ramos tumor cells, a human Burkitt's lymphoma cell line expressing CXCR4 mentioned above, in vitro was examined in a MTT cell proliferation assay as described in (Lapteva (2005) Cancer Gene Therapy 12, 84-89). Cells were grown in a 96-well tissue culture plate and treated with a vehicle or the anti-CXCR4 body. The cells were then incubated with the MTT solution for approximately 4 hours. After this incubation period, a water-insoluble formazan dye is formed. After solubilization, the formazan dye is quantitated using a scanning multi-well spectrophotometer (ELISA reader).

Ramos tumor cells [2] = experiment: Apoptosis assay (annexin V / propidium iodide flow cytometry); type: cell-based, human; details: annexin V and propidium iodide double positive, 24 or 72 hours
[3] = test system: white blood cells, LSK and LSKSLAM cells in peripheral blood; experiment: Stem cell mobilisation in mice after i.v. injection; type: in vivo, mouse; details: 1 and 3 hours after i.v. injection, compared to AMD3100
Description: After 1 and 3 hours, mice were euthanized and peripheral blood (PB) harvested. Spleens were harvested and weighed to assess for splenomegaly (enlargement of the spleen). Samples were lysed to remove red blood cells and 4000 cells plated for LPP (low-proliferative potential) and CFU-HPP (colony forming unit-high proliferative potential) colonies (colony counting 7 days post-plating). The remaining cells were stained with an antibody cocktail to assess lineage-committed, stem and progenitor cell content. Flow cytometric analysis was used to calculate numbers of lineage-committed cells, haemopoietic stem and progenitor cells as well as enriched HSC per volume of PB.

[4] = test system: human CD34+ stem and progenitor cells; experiment: Mobilisation of human CD34+ cells in humanised NSG mice; type: in vivo, humanized NODSIL2Rγ (NSG) mice; details: humanised NSG mouse model, compared to AMD3100
Description: To acquire evidence of mobilisation of human CD34^+ stem and progenitor cells using CXCR4 i-bodies, the above mobilisation experiment was conducted in humanized NODSIL2Rγ (NSG) mice. NSG mice are severely immunodeficient and lack mature T cells, B-cells and NK cells and have severely defective innate immunity, which allows engraftment of human cells without subsequent rejection. NSG mice were transplanted with freshly sorted CD34^+ cord blood cells and upon confirmation of positive human CD45/CD34 engraftment (˜4-5 weeks) were used as a mouse model for human stem cell mobilisation.
Mobilised peripheral blood was harvested and assessed for CD34^+ (human stem and progenitors).

human CD34+CD38− HSC = experiment: In vitro flow cytometric binding to HSC; type: cell-based; details: 10 μg/ml; for binding to human Cord Blood HSC: in decreasing avidity
Description: To determine whether CXCR4 i-bodies bind HSC, in vitro binding analysis to human CD34+CD38^− cells was assessed. Umbilical cord blood (CB) and human bone marrow (BM) were collected as previously described (Nilsson S K et al, 2005 15; 106(4):1232-9; Grassinger, 2009 2; 114(1):49-59). Enriched human BM CD34+ cells and purified CB CD34^+ cells were isolated as previously described (Grassinger, 2009). Human CB and BM CD34+ cells and huNSG BM were stained sequentially with CXCR4 i-bodies (10 μg/ml), anti-His-PE and an antibody cocktail containing CD34-FITC (BD Biosciences #348053) and CD38-BV421 (BD Horizon #562444), washed with PBS (0.5% BSA) and analysed by flow cytometry on a Cytopeia Influx (BD) as previously described (Grassinger, 2009). For analysis of human and murine BM and PB, up to 5×10^6 cells were analyzed at 10-20,000 cells/sec. Data were analyzed using FlowJo 10 software (FlowJo, LLC). For analysis of huNSG BM, huCD45-PECy7 (BD Biosciences #557748) and muCD45-BUV395 (BD Biosciences #564279) were also included in the antibody cocktail. HSC from human CB and BM were defined as CD34+CD38− and HSC from huNSG mice were defined as muCD45^−huCD45^+CD34^+CD38^−. CB and BM samples from 3 individual donors and BM from 3 individual huNSG mice were assessed.

[5] = Murine air pouch model with SDF-1; type: in vivo, BALB/c mice; details: intraperitoneal, 30 minutes before SDF-1 6 μg
Description: The ability of i-bodies to block inflammation was evaluated in an in vivo murine air pouch model. The subcutaneous (s.c.) air pouch is an in vivo model used to study acute and chronic inflammation (Durate et al, Models of Inflammation: Carrageenan Air Pouch, Current Protocols in Pharmacology 5.6.1-5.6.8, March 2012). Injection of irritants into an air pouch in rats or mice induces an inflammatory response that can be quantified by the volume of exudate produced, the infiltration of cells, and the release of inflammatory mediators. An air pouch, is generated by injection of sterile air under the skin of the back of the mouse. […] Air pouch lavage fluid is then analyzed for cell trafficking and cytokine release.
The air pouch assay was performed on 7-week-old BALB/c mice. On days 1 and 3, 0.2 ml/g initial body weight (IBW) of sterile air was injected under the back skin to create the pouch. […] Thirty minutes later, SDF-1 (6 μg) was injected into the pouch. Four hours later, the mice were killed in a CO2 chamber and the air pouch was washed. Cells were collected, counted, and characterized by flow cytometry.

[6] = test system: Human platelet rich plasma; experiment: SDF-1α induced platelet aggregation; type: cell-based; details: 10 or 20 ug/mL, 100 nM SDF-1 alpha
Description: Experiments were carried out to examine whether the i-bodies could block platelet aggregation induced by SDF-1α. […] In the presence of negative control i-body 21H5 (or the isotype control for 12G5: mouse IgG2a). SDF-1 induced a robust and reproducible aggregation (the descending black curves, which indicate an increase in light transmission), which matches with what has been previously published.

Molecule: AM3-114: affinity matured CXCR4 i-body, SEQ ID NO: 40
- growth of RAMOS cells (Ramos tumor cells [1]): substantially inhibit the growth
- induction of apoptosis in Ramos cells (Ramos tumor cells [2]): induced apoptosis
- mobilisation of white blood cells [3]: No mobilisation
- mobilisation of human CD34+ stem cells [4]: do not mobilise stem cells
- binding to human Bone Marrow HSC and Bone Marrow from huNSG mice (human CD34+CD38− HSC): effectively bound
- binding to human Cord Blood HSC (human CD34+CD38− HSC): effectively bound
- cell migration / leukocyte infiltration into the air pouch [5]: inhibiting leukocyte infiltration; also recorded: inhibited cell migration
- blocking of SDF-1α induced platelet aggregation [6]: most effective; also recorded: most efficient

B1: AM3-523: affinity matured CXCR4 i-body, SEQ ID NO: 56 (protein)
chain: LQVDIVPSQGEISVGESKFFLCQVAGSGSHMRISWFSPNGEKLTPNQQRISVVWNDDSSSTLTIYNANIDDAGIYKCVVWVGGYRHRALVLGEATVNVKIFQ
modifications: protein sequence encoding AM3-523
- growth of RAMOS cells (Ramos tumor cells [1]): no observable effect
- induction of apoptosis in Ramos cells (Ramos tumor cells [2]): induced apoptosis
- mobilisation of white blood cells [3]: No mobilisation
- mobilisation of human CD34+ stem cells [4]: do not mobilise stem cells
- binding to human Cord Blood HSC (human CD34+CD38− HSC): effectively bound
- cell migration / leukocyte infiltration into the air pouch [5]: inhibiting leukocyte infiltration; also recorded: inhibited cell migration
- blocking of SDF-1α induced platelet aggregation [6]: blocked aggregation to the same extent as the MAb12G5
